Experiment [1] deals with HIV-1 RT mutant K101E/M184V. The experiment can be described thus: single round infection assay, K101E/M184V. The format is cell-based. To be noted: for fold-change of IC50 of the mutant relative to WT: K101E/M184V vs WT; for IC50: ± SD, n=4. The protocol: (§1) The human osteosarcoma cell line, HOS, was obtained from Dr. Richard Schwartz (Michigan State University, East Lansing, MI) and grown in Dulbecco’s modified Eagle’s medium (Invitrogen, Carlsbad, CA) supplemented with 5 % (v/v) fetal bovine serum, 5 % newborn calf serum, and penicillin (50 units/ml) plus streptomycin (50 µg/ml; Quality Biological, Gaithersburg, MD). Virion production and single-round infectivity assays were used to determine antiviral activity (IC50 values) of the compounds as previously described.
(§2) pNLNgoMIVR-ΔEnv.LUC has been described previously. The RT open reading frame was removed from pNLNgoMIVR-ΔEnv.LUC (digestion with SpeI and SalI) and inserted between the SpeI and SalI sites of pBluescript II KS+. Using that construct as the wild-type template, we prepared the following HIV-1 RT mutants using the QuikChange II XL (Stratagene, La Jolla, CA) site-directed mutagenesis protocol kit: L100I, K103N, Y181C, Y188L, H221Y, K103N/Y181C, G190A, G190S, M230L, P236L, L100I/K103N, K103N/P225H, V106A/G190A/F227L, V106A, L234I, V106A/F227L, V106A/L234I, V106A/F227L/L234I, E40K, D67E, K101E, V111A, E138K, M184I, M184V, K101E/M184I, K101E/M184V, E138K/M184I, E138K/M184V, K101P, Y181I, and K101P/V179I. The following sense oligonucleotides were used with matching cognate antisense oligonucleotides (not shown) (Integrated DNA Technologies, Coralville, IA) in the mutagenesis: L100I, 5′-[…]-3′; L100I 2-103, 5′-[…]-3′; K103N, 5′-[…]-3′; Y181C, 5′-[…]-3′; Y188L, 5′-[…]-3′; H221Y, 5′-[…]-3′; G190A, 5′-[…]-3′; G190S, 5′-[…]-3′; P225H, 5′-[…]-3′; F227, 5′-[…]-3′; M230L, 5′-[…]-3′; P236L, 5′-[…]-3′; V106A, 5′-[…]-3′; L234I, 5′-[…]-3′; E40K, 5′-[…]-3′; D67E, 5′-[…]-3′; K101E, 5′-[…]-3′; V111A, 5′-[…]-3′; E138K, 5′-[…]-3′; M184I, 5′-[…]-3′; M184V, 5′-[…]-3′; K101P, 5′-[…]-3′; Y181I, 5′-[…]-3′; K101P/V179I, 5′-[…]-3′. The double mutants K103N/Y181C, K103N/P225H, and L100I/K103N were made using the previously generated K103N mutant and the appropriate oligonucleotides to add the second mutation, Y181C, P225, and L100I respectively. The double mutants V106A/F227L and V106A/L234I were prepared using the previously generated V106A mutant and the appropriate oligonucleotides to add the second mutation, F227L and L234I, respectively. The double mutants K101E/M184I and K101E/M184V were constructed using the previously generated K101E mutant and the appropriate oligonucleotides to add the second mutation, M184I and M184V, respectively. The double mutants E138K/M184I and E138K/M184V were constructed using the previously generated E138K mutant and the appropriate oligonucleotides for the second mutation, M184I and M184V, respectively. The triple mutant V106A/F227L/L234I was made using the previously generated V106A/F227L double mutant and the appropriate oligonucleotides for the third mutation, L234I. The triple mutant V106A/G190A/F227L was constructed in a series of steps using the previously generated V106A mutant and the appropriate oligonucleotides for the second mutation, G190A, to generate the double mutant V106A/G190A, and then the triple mutant was made using double mutant V106A/G190A and oligonucleotides for the third mutation, F227L. The DNA sequence of each construct was verified by DNA sequence determination. The sequences encoding the mutant RTs were then subcloned into pNLNgoMIVR-ΔEnv.LUC (between the KpnI and SalI sites) to produce the mutant HIV-1 constructs. These DNA sequences were also checked independently by DNA sequence determination.
(§3) 10.1186/s12977-016-0244-2 The IC50 values (nM) of RPV and the RPV analogs were determined against the NNRTI resistant mutants were measured by using a single round infection assay, n = 4. The concentrations (nM) are measured by reductions in luciferase reporter activity followed by the standard deviations. […]

For experiment [2], the system named is HIV-1 RT mutant V106A/L234I. The experiment in a line: single round infection assay, V106A/L234I. It is filed as cell-based. The conditions noted are these: V106A/L234I vs WT. Here is the method:
as §1
pNLNgoMIVR-ΔEnv.LUC has been described previously. The RT open reading frame was removed from pNLNgoMIVR-ΔEnv.LUC (digestion with SpeI and SalI) and inserted between the SpeI and SalI sites of pBluescript II KS+. Using that construct as the wild-type template, we prepared the following HIV-1 RT mutants using the QuikChange II XL (Stratagene, La Jolla, CA) site-directed mutagenesis protocol kit: L100I, K103N, Y181C, Y188L, H221Y, K103N/Y181C, G190A, G190S, M230L, P236L, L100I/K103N, K103N/P225H, V106A/G190A/F227L, V106A, L234I, V106A/F227L, V106A/L234I, V106A/F227L/L234I, E40K, D67E, K101E, V111A, E138K, M184I, M184V, K101E/M184I, K101E/M184V, E138K/M184I, E138K/M184V, K101P, Y181I, and K101P/V179I. […]
as §3

The test system of a further experiment is HIV-1 RT mutant M184V. The experiment can be described thus: single round infection assay, M184V. It is filed as cell-based. To be noted: for IC50: Human immunodeficiency virus 1, M184V, ± SD, n=4. The protocol:
as §1
as §2, with “The DNA sequence of each construct was verified by DNA sequence determination. The sequences encoding the mutant RTs were then subcloned into pNLNgoMIVR-ΔEnv.LUC (between the KpnI and SalI sites) to produce the mutant HIV-1 constructs. These DNA sequences were also checked independently by DNA sequence determination.” left out
as §3

In another experiment the test system is HIV-1 RT mutant M184I. The experiment can be described thus: single round infection assay, M184I. The format is cell-based. To be noted: for IC50: Human immunodeficiency virus 1, M184I, ± SD, n=4. Here is the method: as §1
as §2, with “The double mutants E138K/M184I and E138K/M184V were constructed using the previously generated E138K mutant and the appropriate oligonucleotides for the second mutation, M184I and M184V, respectively. The triple mutant V106A/F227L/L234I was made using the previously generated V106A/F227L double mutant and the appropriate oligonucleotides for the third mutation, L234I. The triple mutant V106A/G190A/F227L was constructed in a series of steps using the previously generated V106A mutant and the appropriate oligonucleotides for the second mutation, G190A, to generate the double mutant V106A/G190A, and then the triple mutant was made using double mutant V106A/G190A and oligonucleotides for the third mutation, F227L. The DNA sequence of each construct was verified by DNA sequence determination. The sequences encoding the mutant RTs were then subcloned into pNLNgoMIVR-ΔEnv.LUC (between the KpnI and SalI sites) to produce the mutant HIV-1 constructs. These DNA sequences were also checked independently by DNA sequence determination.” left out
as §3

Another experiment relates to HIV-1 RT mutant V111A. The experiment in a line: single round infection assay, V111A. It is filed as cell-based. To be noted: Human immunodeficiency virus 1, V111A; ± SD, n=4. The protocol: as §1
as §2, with “The DNA sequence of each construct was verified by DNA sequence determination. The sequences encoding the mutant RTs were then subcloned into pNLNgoMIVR-ΔEnv.LUC (between the KpnI and SalI sites) to produce the mutant HIV-1 constructs. These DNA sequences were also checked independently by DNA sequence determination.” left out
as §3

The test system of another experiment is HIV-1 RT mutant Y188L. On the set-up: method as in PMID 23217210. The conditions noted are these: previous study; cited from earlier work.
The mark [3] stands for this setting: Human immunodeficiency virus 1, K101E/M184V.

On to `CC(=O)c1ccc(Nc2nc(Nc3c(C)cc(/C=C/C#N)cc3C)nc3[nH]cnc23)cc1` [compound 14], for which the “fold-change of IC50 of the mutant relative to WT” value in experiment [1] was less than 2; in experiment [2] it was 3.
As usually defined, the IC50 is the point on the concentration scale where inhibition reaches its midpoint. Regarding `Cc1cc(/C=C/C#N)cc(C)c1Nc1nc(Nc2ccc(C(F)(F)F)cc2)c2nc[nH]c2n1` [compound 15], the IC50 in experiment [1] (setting [3]) was less than 6 nM; in experiment [1] (K101E/M184V), 3.8 ± 0.42 nM. In addition, the “fold-change of IC50 of the mutant relative to WT” value in experiment [1] stood at 2.
`COc1ccc(Nc2nc(Nc3c(C)cc(/C=C/C#N)cc3C)nc3[nH]cnc23)cc1` [compound 16]: the “fold-change of IC50 of the mutant relative to WT” value in experiment [1] is reported as 2; in the experiment on HIV-1 RT mutant M184V (M184V vs WT), less than 2; in the experiment on HIV-1 RT mutant M184I (M184I vs WT), less than 2.
With `Cc1cc(/C=C/C#N)cc(C)c1Nc1nc(Nc2ccc(F)cc2)c2nc[nH]c2n1` [compound 17], the concentration for half-maximal inhibition (IC50) is 0.5 ± 0.17 nM in the experiment on HIV-1 RT mutant V111A, 8.1 nM in experiment [1] (setting [3]), 1.6 ± 0.26 nM with HIV-1 RT mutant M184V and 1.7 ± 0.3 nM in the experiment with HIV-1 RT mutant M184I. Also, the “fold-change of IC50 of the mutant relative to WT” value in experiment [1] is reported as 4.
Consider `Cc1cc(/C=C/C#N)cc(C)c1Nc1nc(Nc2ccc3scnc3c2)c2nc[nH]c2n1` [compound 21], for which the figures for the half-maximal inhibitory concentration (IC50) (in experiment [1] (setting [3]); in experiment [1] (K101E/M184V); in the experiment on HIV-1 RT mutant Y188L) were less than 2.5 nM, 2.4 ± 0.2 nM and less than 10 nM, respectively. For the same compound, the “fold-change of IC50 of the mutant relative to WT” value in experiment [1] was found to be 6; in experiment [2], 2.
In the case of `Cc1cc(/C=C/C#N)cc(C)c1Nc1ncc2ncn(-c3ccc(C#N)cc3)c2n1` [compound 26], the IC50 was found to be 1.5 ± 0.8 nM in the experiment with HIV-1 RT mutant V111A, 9.1 ± 0.1 nM in experiment [1] (setting [3]), 4.2 ± 0.99 nM with HIV-1 RT mutant M184V and 5.6 ± 2.2 nM in the experiment with HIV-1 RT mutant M184I. In addition, the “fold-change of IC50 of the mutant relative to WT” value in experiment [1] was less than 2; in experiment [2] it was 5.
For the compound `Cc1cc(/C=C/C#N)cc(C)c1-n1cnc2cnc(Nc3ccc(C#N)cc3)nc21` [compound 27], the “fold-change of IC50 of the mutant relative to WT” value in experiment [1] is less than 2. For the same compound, the half-inhibitory concentration (IC50) in the experiment with HIV-1 RT mutant Y188L is less than 10 nM.
